The supplement of paper PMC10307832

How the values were obtained:
Experiment in all cases: relative viability (nuclei count vs DMSO), 5 days (fraction); higher = more cells survive
ABC-1 = tested on: ABC-1
In short: (§1)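 Medians of duplicate plates are given as relative viability. That measure is the nuclei count in treated wells divided by the count in vehicle wells. Counts were taken on 4× images of lung cancer cell lines in 1536-well plates, 5 days after pin-tool dosing the day after seeding with one drug alone or a fixed anchor-drug dose plus five library-drug doses (not always all listed) in √10 steps.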

COR-L23 = tested on: COR-L23
In short: as §1

ChaGo-K-1 = tested on: ChaGo-K-1
In short: as §1

EPLC-272H = tested on: EPLC-272H
In short: as §1

HCC-15 = tested on: HCC-15
In short: as §1

HCC-366 = tested on: HCC-366
In short: as §1

HCC-44 = tested on: HCC-44
In short: as §1

HCC-827 = tested on: HCC-827
In short: as §1

LCLC-103H = tested on: LCLC-103H
In short: as §1

NCI-H1355 = tested on: NCI-H1355
In short: as §1

NCI-H1734 = tested on: NCI-H1734
In short: as §1

NCI-H1793 = tested on: NCI-H1793
In short: as §1

NCI-H1944 = tested on: NCI-H1944
In short: as §1

NCI-H2009 = tested on: NCI-H2009
In short: as §1

NCI-H2023 = tested on: NCI-H2023
In short: as §1

NCI-H2085 = tested on: NCI-H2085
In short: as §1

NCI-H2228 = tested on: NCI-H2228
In short: as §1

NCI-H2347 = tested on: NCI-H2347
In short: as §1

NCI-H2405 = tested on: NCI-H2405
In short: as §1

NCI-H3122 = tested on: NCI-H3122
In short: as §1

PC-14 = tested on: PC-14
In short: as §1

SW 1573 = tested on: SW 1573
In short: as §1

Question: For `Cc1csc(=NC2CCCCC2)n1/N=C/c1ccc(O)c(O)c1O` [MIM1] + Cc1cc(Nc2cc(N3CCN(C)CC3)nc(Sc3ccc(NC(=O)C4CC4)cc3)n2)n[nH]1 [Tozasertib] (partner 0.1 µM), which relative viability (ABC-1; first compound 0.2 µM) is on record?
Answer: 0.228

Question: What about the relative viability (ABC-1; first compound 0.6325 µM) of the same molecule?
Answer: 0.182

Question: And the relative viability (ABC-1; first compound 2 µM)?
Answer: 0.21

Question: What about the relative viability (ABC-1; first compound 6.325 µM) of the same molecule?
Answer: 0.206

Question: And the relative viability (ABC-1; first compound 20 µM)?
Answer: 0.194

Question: And the relative viability (COR-L23; first compound 0.2 µM)?
Answer: 0.184

Question: What about the relative viability (COR-L23; first compound 0.6325 µM) of the same molecule?
Answer: 0.218

Question: And the relative viability (COR-L23; first compound 2 µM)?
Answer: 0.182

Question: What about the relative viability (COR-L23; first compound 6.325 µM) of the same molecule?
Answer: 0.146

Question: And the relative viability (COR-L23; first compound 20 µM)?
Answer: 0.152

Question: And the relative viability (ChaGo-K-1; first compound 0.2 µM)?
Answer: 0.246

Question: What about the relative viability (ChaGo-K-1; first compound 0.6325 µM) of the same molecule?
Answer: 0.232

Question: And the relative viability (ChaGo-K-1; first compound 2 µM)?
Answer: 0.204

Question: What about the relative viability (ChaGo-K-1; first compound 6.325 µM) of the same molecule?
Answer: 0.196

Question: And the relative viability (ChaGo-K-1; first compound 20 µM)?
Answer: 0.155

Question: And the relative viability (EPLC-272H; first compound 0.2 µM)?
Answer: 0.425

Question: And the relative viability (EPLC-272H; first compound 0.6325 µM)?
Answer: 0.226

Question: And the relative viability (EPLC-272H; first compound 2 µM)?
Answer: 0.219

Question: And the relative viability (EPLC-272H; first compound 6.325 µM)?
Answer: 0.372

Question: What about the relative viability (EPLC-272H; first compound 20 µM) of the same molecule?
Answer: 0.124

Question: What about the relative viability (HCC-15; first compound 0.2 µM) of the same molecule?
Answer: 0.354

Question: And the relative viability (HCC-15; first compound 0.6325 µM)?
Answer: 0.35

Question: What about the relative viability (HCC-15; first compound 2 µM) of the same molecule?
Answer: 0.228

Question: What about the relative viability (HCC-15; first compound 6.325 µM) of the same molecule?
Answer: 0.231

Question: What about the relative viability (HCC-15; first compound 20 µM) of the same molecule?
Answer: 0.137

Question: What about the relative viability (HCC-366; first compound 0.2 µM) of the same molecule?
Answer: 0.147

Question: And the relative viability (HCC-366; first compound 2 µM)?
Answer: 0.134

Question: And the relative viability (HCC-366; first compound 6.325 µM)?
Answer: 0.026

Question: And the relative viability (HCC-366; first compound 20 µM)?
Answer: 0.0212

Question: And the relative viability (HCC-44; first compound 0.2 µM)?
Answer: 0.962

Question: What about the relative viability (HCC-44; first compound 0.6325 µM) of the same molecule?
Answer: 1.1

Question: What about the relative viability (HCC-44; first compound 2 µM) of the same molecule?
Answer: 0.387

Question: And the relative viability (HCC-44; first compound 6.325 µM)?
Answer: 0.584

Question: And the relative viability (HCC-44; first compound 20 µM)?
Answer: 0.184

Question: And the relative viability (HCC-827; first compound 0.2 µM)?
Answer: 0.43

Question: What about the relative viability (HCC-827; first compound 0.6325 µM) of the same molecule?
Answer: 0.404

Question: And the relative viability (HCC-827; first compound 2 µM)?
Answer: 0.411

Question: What about the relative viability (HCC-827; first compound 6.325 µM) of the same molecule?
Answer: 0.169

Question: What about the relative viability (HCC-827; first compound 20 µM) of the same molecule?
Answer: 0.177

Question: And the relative viability (LCLC-103H; first compound 0.2 µM)?
Answer: 0.609

Question: And the relative viability (LCLC-103H; first compound 0.6325 µM)?
Answer: 0.426

Question: And the relative viability (LCLC-103H; first compound 2 µM)?
Answer: 0.505

Question: What about the relative viability (LCLC-103H; first compound 6.325 µM) of the same molecule?
Answer: 0.41

Question: What about the relative viability (LCLC-103H; first compound 20 µM) of the same molecule?
Answer: 0.268

Question: What about the relative viability (NCI-H1355; first compound 0.2 µM) of the same molecule?
Answer: 0.588

Question: What about the relative viability (NCI-H1355; first compound 0.6325 µM) of the same molecule?
Answer: 0.557

Question: And the relative viability (NCI-H1355; first compound 2 µM)?
Answer: 0.519

Question: What about the relative viability (NCI-H1355; first compound 6.325 µM) of the same molecule?
Answer: 0.464

Question: And the relative viability (NCI-H1355; first compound 20 µM)?
Answer: 0.3

Question: And the relative viability (NCI-H1734; first compound 0.2 µM)?
Answer: 0.226

Question: What about the relative viability (NCI-H1734; first compound 0.6325 µM) of the same molecule?
Answer: 0.261

Question: What about the relative viability (NCI-H1734; first compound 2 µM) of the same molecule?
Answer: 0.256

Question: And the relative viability (NCI-H1734; first compound 6.325 µM)?
Answer: 0.169

Question: And the relative viability (NCI-H1734; first compound 20 µM)?
Answer: 0.124

Question: What about the relative viability (NCI-H1793; first compound 0.2 µM) of the same molecule?
Answer: 0.405

Question: What about the relative viability (NCI-H1793; first compound 2 µM) of the same molecule?
Answer: 0.435

Question: What about the relative viability (NCI-H1793; first compound 6.325 µM) of the same molecule?
Answer: 0.298

Question: And the relative viability (NCI-H1793; first compound 20 µM)?
Answer: 0.34

Question: And the relative viability (NCI-H1944; first compound 0.2 µM)?
Answer: 0.226

Question: And the relative viability (NCI-H1944; first compound 0.6325 µM)?
Answer: 0.288

Question: What about the relative viability (NCI-H1944; first compound 2 µM) of the same molecule?
Answer: 0.235

Question: And the relative viability (NCI-H1944; first compound 6.325 µM)?
Answer: 0.231

Question: And the relative viability (NCI-H1944; first compound 20 µM)?
Answer: 0.143

Question: And the relative viability (NCI-H2009; first compound 0.2 µM)?
Answer: 0.754

Question: What about the relative viability (NCI-H2009; first compound 0.6325 µM) of the same molecule?
Answer: 0.701

Question: What about the relative viability (NCI-H2009; first compound 2 µM) of the same molecule?
Answer: 0.859

Question: And the relative viability (NCI-H2009; first compound 6.325 µM)?
Answer: 0.622

Question: And the relative viability (NCI-H2009; first compound 20 µM)?
Answer: 0.725

Question: And the relative viability (NCI-H2023; first compound 0.2 µM)?
Answer: 0.32

Question: And the relative viability (NCI-H2023; first compound 0.6325 µM)?
Answer: 0.345

Question: And the relative viability (NCI-H2023; first compound 2 µM)?
Answer: 0.3

Question: And the relative viability (NCI-H2023; first compound 6.325 µM)?
Answer: 0.237

Question: And the relative viability (NCI-H2023; first compound 20 µM)?
Answer: 0.109

Question: What about the relative viability (NCI-H2085; first compound 0.2 µM) of the same molecule?
Answer: 0.781

Question: And the relative viability (NCI-H2085; first compound 0.6325 µM)?
Answer: 0.755

Question: And the relative viability (NCI-H2085; first compound 2 µM)?
Answer: 0.763

Question: And the relative viability (NCI-H2085; first compound 6.325 µM)?
Answer: 0.598

Question: What about the relative viability (NCI-H2085; first compound 20 µM) of the same molecule?
Answer: 0.533

Question: And the relative viability (NCI-H2228; first compound 0.2 µM)?
Answer: 0.257

Question: And the relative viability (NCI-H2228; first compound 0.6325 µM)?
Answer: 0.284

Question: What about the relative viability (NCI-H2228; first compound 2 µM) of the same molecule?
Answer: 0.234

Question: What about the relative viability (NCI-H2228; first compound 6.325 µM) of the same molecule?
Answer: 0.203

Question: And the relative viability (NCI-H2228; first compound 20 µM)?
Answer: 0.123

Question: What about the relative viability (NCI-H2347; first compound 0.2 µM) of the same molecule?
Answer: 0.478

Question: And the relative viability (NCI-H2347; first compound 0.6325 µM)?
Answer: 0.51

Question: What about the relative viability (NCI-H2347; first compound 2 µM) of the same molecule?
Answer: 0.497

Question: What about the relative viability (NCI-H2347; first compound 6.325 µM) of the same molecule?
Answer: 0.473

Question: And the relative viability (NCI-H2347; first compound 20 µM)?
Answer: 0.369

Question: And the relative viability (NCI-H2405; first compound 0.2 µM)?
Answer: 0.767

Question: What about the relative viability (NCI-H2405; first compound 0.6325 µM) of the same molecule?
Answer: 0.721

Question: What about the relative viability (NCI-H2405; first compound 2 µM) of the same molecule?
Answer: 0.682

Question: What about the relative viability (NCI-H2405; first compound 6.325 µM) of the same molecule?
Answer: 0.549

Question: What about the relative viability (NCI-H2405; first compound 20 µM) of the same molecule?
Answer: 0.537

Question: And the relative viability (NCI-H3122; first compound 0.2 µM)?
Answer: 0.446

Question: And the relative viability (NCI-H3122; first compound 0.6325 µM)?
Answer: 0.464

Question: And the relative viability (NCI-H3122; first compound 2 µM)?
Answer: 0.366

Question: What about the relative viability (NCI-H3122; first compound 6.325 µM) of the same molecule?
Answer: 0.155

Question: What about the relative viability (NCI-H3122; first compound 20 µM) of the same molecule?
Answer: 0.0965

Question: What about the relative viability (PC-14; first compound 0.2 µM) of the same molecule?
Answer: 0.526

Question: What about the relative viability (PC-14; first compound 0.6325 µM) of the same molecule?
Answer: 0.593

Question: And the relative viability (PC-14; first compound 2 µM)?
Answer: 0.413

Question: What about the relative viability (PC-14; first compound 6.325 µM) of the same molecule?
Answer: 0.502

Question: And the relative viability (PC-14; first compound 20 µM)?
Answer: 0.357

Question: And the relative viability (SW 1573; first compound 0.2 µM)?
Answer: 0.21

Question: And the relative viability (SW 1573; first compound 0.6325 µM)?
Answer: 0.197

Question: And the relative viability (SW 1573; first compound 2 µM)?
Answer: 0.257

Question: What about the relative viability (SW 1573; first compound 6.325 µM) of the same molecule?
Answer: 0.127

Question: What about the relative viability (SW 1573; first compound 20 µM) of the same molecule?
Answer: 0.128
